Assay results published in article PMC6511062, “Preclinical candidate for the treatment of visceral leishmaniasis that acts through proteasome inhibition” (Proceedings of the National Academy of Sciences of the …, 2019).

Key:
[1] = system: L. donovani promastigotes; test: Cell cycle (FACS) analysis, L. donovani promastigotes; type: cell-based, Leishmania donovani; conditions: 5x EC50
Method: consisted of 1 µL (40 ng) of cDNA, 10 µL of Brilliant III Ultra-Fast QPCR Master Mix (Agilent Technologies), 1 µL (500 nM) each of the forward and reverse primers, and 0.3 µl (30 nM) of reference dye and nuclease-free PCR grade-treated water. PCR was performed using an Agilent Mx3005P machine with the following cycling conditions:
95°C for 3 min; 40 cycles of 95°C for 20 s; then 60 °C for 20 s. The reference gene TERT (Tb927.11.10190, telomerase reverse transcriptase) was used to provide a baseline of transcription levels for normalization of the data. Relative quantification in the tetracycline-induced cell lines were normalized to the un-induced cell line using the […]
h. Morphological analysis […]
Cultures of bloodstream T. brucei and L. donovani promastigotes at starting cell densities of 5 x 105 were incubated with concentrations of compound 7 equivalent to 5x their respective EC50 values. […] After washing, cell densities were adjusted to 5 × 10^5 cells mL, re-suspended in 500 µL of PBS containing 50 µg/mL propidium iodide, 50 µg/mL RNase and 0.1% Triton X-100, incubated at room temperature for 20 min in the dark and analysed using FACSort analytical flow cytometer using Cellquest software (BD Biosciences). j. […]

[2] = system: L. donovani axenic amastigotes; test: L. donovani axenic amastigote drug sensitivity; type: cell-based; conditions: Leishmania donovani, concentration stated as 1X IC50, read-out: whole cell IC50
Method: T. cruzi4, Leishmania donovani axenic amastigote, cidal axenic amastigote and intra-macrophage drug sensitivity assays were conducted as previously described5,6.
The rate of kill of compound 8 was determined in axenic amastigotes using the previously described cidal axenic assay5, with one minor modification. Instead of a single readout at 72 h, multiple identical plates were used and read at different time points (24, 48, 72 h). Rate of kill curves showing the luminescence signal at each time point for each concentration were plotted.
5. Intrinsic clearance (CLint) […]
XLfit (idbs, UK) was used to calculate the exponential decay and consequently the rate constant (k) from the ratio of peak area of test compound to internal standard at each time-point. The rate of intrinsic clearance (CLint) of each test compound was then calculated using the following calculation: […]
Compounds were dispensed into black 384-well assay plates (Greiner) by acoustic dispensing (LabCyte ECHO). […] Three proteasome activities were measured using a commercially available indirect enzyme-based luminescent assay kit (Promega) with Suc-LLVY-aminoluciferin, Z-LRR-aminoluciferin and Z-nLPnLD-aminoluciferin used as substrates for chymotrypsin-like, trypsin-like and caspase-like activities, respectively. […]

## O=C(Nc1ccc(F)c(-c2cn3nc(-c4ccccc4)cnc3n2)c1)N1CCCC1 [Compound 7]
[1]
  effect on cell cycle progression: accumulation of cells in G2/M

## O=C(Nc1ccc(F)c(-c2ccn3c(N4CCOCC4)cnc3n2)c1)N1CCCC1 [Compound 8]
[2]
  IC50: 300 nM
